What all share (test): cAMP functional assay (HTRF) in HEK293 cells in presence of 0.1% casein
Format in all cases: cell-based

Experiment [1] deals with T1, human glucose-dependent insulinotropic peptide receptor (GIPR) (Homo sapiens, UniProt P48546).
T1 construct: expressed in transfected cells; host or cells: HEK293
T1 sequence (P48546 22-466): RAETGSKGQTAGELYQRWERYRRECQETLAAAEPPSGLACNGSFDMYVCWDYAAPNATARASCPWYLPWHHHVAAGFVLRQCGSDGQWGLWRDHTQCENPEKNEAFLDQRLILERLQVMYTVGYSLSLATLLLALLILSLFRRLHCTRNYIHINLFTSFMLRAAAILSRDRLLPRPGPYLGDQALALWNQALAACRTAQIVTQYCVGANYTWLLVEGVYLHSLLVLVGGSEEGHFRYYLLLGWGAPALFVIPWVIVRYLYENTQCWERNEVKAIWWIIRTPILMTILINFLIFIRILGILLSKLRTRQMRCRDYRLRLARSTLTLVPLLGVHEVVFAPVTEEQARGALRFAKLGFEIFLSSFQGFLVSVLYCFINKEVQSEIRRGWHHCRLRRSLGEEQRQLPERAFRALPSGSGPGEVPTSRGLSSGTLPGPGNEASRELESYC
Particulars: HEK293 cells expressing human GIPR, geometric mean, read-out: hGIPR cAMP Rel EC50 nM (SEM, n).

Experiment [2] addresses T2, human glucagon receptor (GcgR) (Homo sapiens, UniProt P47871).
T2 construct: expressed in transfected cells; host or cells: HEK293
The conditions noted are these: HEK293 cells expressing human GcgR, geometric mean, read-out: hGcgR cAMP Rel EC50 nM (SEM, n).

Experiment [3] has as its target T3, human GLP-1 receptor (GLP-1R) (Homo sapiens, UniProt P43220).
T3 construct: expressed in transfected cells; host or cells: HEK293
Particulars: HEK293 cells expressing human GLP-1R, geometric mean, read-out: hGLP1R cAMP Rel EC50 nM (SEM, n).

This is an account of results in US12723063B2, “GIPR-agonist compounds” (Eli Lilly and Company, priority 2019, dated 2026).

For orientation: EC50 means the concentration that produces a half-maximal response.

*1 amine or outer side, *2 acyl side, *3 side chain or, on linkers, in order; H or OH if unused. Where a SMILES comes first, the peptide text is derived from it. Side-chain parts run from the residue outwards. [ ]: non-standard residue; d: D form. The star is where a group is joined. C20 diacid = O=C(O)CCCCCCCCCCCCCCCCCCC(=O)*; C18 diacid = O=C(O)CCCCCCCCCCCCCCCCC(=O)*; γGlu = O=C(O)[C@H](CCC(=O)[*:2])N[*:1]; αMeL = CC(C)C[C@](C)(N)C(=O)O; Orn = NCCC[C@H](N)C(=O)O; AEEA = NCCOCCOCC(=O)O; Aib = CC(C)(N)C(=O)O

T2 sequence (P47871 26-477): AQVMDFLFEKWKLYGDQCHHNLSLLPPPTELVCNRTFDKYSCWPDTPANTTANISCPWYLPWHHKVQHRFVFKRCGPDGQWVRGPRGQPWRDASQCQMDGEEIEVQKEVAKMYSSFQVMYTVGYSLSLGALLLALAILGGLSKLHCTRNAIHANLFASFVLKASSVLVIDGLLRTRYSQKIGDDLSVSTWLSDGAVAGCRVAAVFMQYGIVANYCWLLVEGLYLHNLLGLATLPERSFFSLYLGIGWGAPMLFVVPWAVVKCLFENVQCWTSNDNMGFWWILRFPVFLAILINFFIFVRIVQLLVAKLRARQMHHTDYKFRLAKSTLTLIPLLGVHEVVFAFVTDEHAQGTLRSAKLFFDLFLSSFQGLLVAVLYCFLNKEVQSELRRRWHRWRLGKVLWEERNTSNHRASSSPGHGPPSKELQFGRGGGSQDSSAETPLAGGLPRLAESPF
T3 sequence (P43220 24-463): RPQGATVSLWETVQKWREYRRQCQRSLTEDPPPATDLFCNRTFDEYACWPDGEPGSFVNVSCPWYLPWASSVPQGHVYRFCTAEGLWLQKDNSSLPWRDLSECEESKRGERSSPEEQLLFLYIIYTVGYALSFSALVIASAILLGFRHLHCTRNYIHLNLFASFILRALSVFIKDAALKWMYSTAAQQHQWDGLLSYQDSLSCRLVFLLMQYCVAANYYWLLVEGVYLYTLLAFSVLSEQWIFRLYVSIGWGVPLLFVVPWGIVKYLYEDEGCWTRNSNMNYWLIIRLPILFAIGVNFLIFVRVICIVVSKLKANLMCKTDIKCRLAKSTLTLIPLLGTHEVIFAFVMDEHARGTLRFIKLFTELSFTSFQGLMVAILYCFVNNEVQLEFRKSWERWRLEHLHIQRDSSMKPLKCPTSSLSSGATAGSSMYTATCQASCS

As to `CC[C@H](C)[C@H](NC(=O)[C@H](CCCN)NC(=O)[C@H](CC(=O)O)NC(=O)[C@H](CC(C)C)NC(=O)[C@](C)(CC(C)C)NC(=O)[C@@H](NC(=O)[C@H](CO)NC(=O)[C@H](Cc1ccc(O)cc1)NC(=O)[C@H](CC(=O)O)NC(=O)[C@H](CO)NC(=O)[C@@H](NC(=O)[C@H](Cc1ccccc1)NC(=O)[C@@H](NC(=O)CNC(=O)[C@H](CCC(=O)O)NC(=O)C(C)(C)NC(=O)[C@@H](N)Cc1ccc(O)cc1)[C@@H](C)O)[C@@H](C)CC)[C@@H](C)CC)C(=O)N[C@@H](Cc1c[nH]cn1)C(=O)N[C@@H](CCC(N)=O)C(=O)NC(C)(C)C(=O)N[C@@H](CC(=O)O)C(=O)N[C@@H](Cc1ccccc1)C(=O)N[C@H](C(=O)N[C@H](CCC(=O)O)C(=O)N[C@@H](Cc1ccc(O)cc1)C(=O)N[C@@H](CCCCNC(=O)COCCOCCNC(=O)COCCOCCNC(=O)CC[C@H](NC(=O)CCCCCCCCCCCCCCCCCCC(=O)O)C(=O)O)C(=O)N[C@@H](CC(C)C)C(=O)N[C@@H](CCC(=O)O)C(=O)NCC(=O)NCC(=O)N1CCC[C@H]1C(=O)N[C@@H](CO)C(=O)N[C@@H](CO)C(=O)NCC(=O)N[C@@H](C)C(=O)N1CCC[C@H]1C(=O)N1CCC[C@H]1C(=O)N1CCC[C@H]1C(=O)N[C@@H](CO)C(N)=O)C(C)C` [Example 101], the 50% effective concentration (EC50) in experiment [1] is 0.0396 nM; in experiment [2], over 5000 nM; in experiment [3], over 5000 nM.
As for `CC[C@H](C)[C@H](NC(=O)[C@H](CCCN)NC(=O)[C@H](CC(=O)O)NC(=O)[C@H](CC(C)C)NC(=O)[C@](C)(CC(C)C)NC(=O)[C@@H](NC(=O)[C@H](CO)NC(=O)[C@H](Cc1ccc(O)cc1)NC(=O)[C@H](CC(=O)O)NC(=O)[C@H](CO)NC(=O)[C@@H](NC(=O)[C@H](Cc1ccccc1)NC(=O)[C@@H](NC(=O)CNC(=O)[C@H](CCC(=O)O)NC(=O)C(C)(C)NC(=O)[C@@H](N)Cc1ccc(O)cc1)[C@@H](C)O)[C@@H](C)CC)[C@@H](C)CC)C(=O)N[C@@H](Cc1c[nH]cn1)C(=O)N[C@@H](CCC(N)=O)C(=O)NC(C)(C)C(=O)N[C@@H](CCC(=O)O)C(=O)N[C@@H](Cc1ccccc1)C(=O)N[C@H](C(=O)N[C@H](CCC(=O)O)C(=O)N[C@@H](Cc1ccc(O)cc1)C(=O)N[C@@H](CCCCNC(=O)COCCOCCNC(=O)COCCOCCNC(=O)CC[C@H](NC(=O)CCCCCCCCCCCCCCCCCCC(=O)O)C(=O)O)C(=O)N[C@@H](CC(C)C)C(=O)N[C@@H](CCC(=O)O)C(=O)NCC(=O)NCC(=O)N1CCC[C@H]1C(=O)N[C@@H](CO)C(=O)N[C@@H](CO)C(=O)NCC(=O)N[C@@H](C)C(=O)N1CCC[C@H]1C(=O)N1CCC[C@H]1C(=O)N1CCC[C@H]1C(=O)N[C@@H](CO)C(N)=O)C(C)C` [Example 102] (H-Y[Aib]EGTFISDYSI[αMeL]LD[Orn]IHQ[Aib]EFV[dE]YK([AEEA-AEEA-γGlu-C20 diacid])LEGGPSSGAPPPS-NH2), the results for the EC50 in experiment [1], in experiment [2] and in experiment [3] were 0.0166 nM, over 5000 nM and over 5000 nM, respectively.
As to `CC[C@H](C)[C@H](NC(=O)[C@H](CCCN)NC(=O)[C@H](CC(=O)O)NC(=O)[C@H](CC(C)C)NC(=O)[C@](C)(CC(C)C)NC(=O)[C@@H](NC(=O)[C@H](CO)NC(=O)[C@H](Cc1ccc(O)cc1)NC(=O)[C@H](CC(=O)O)NC(=O)[C@H](CO)NC(=O)[C@@H](NC(=O)[C@H](Cc1ccccc1)NC(=O)[C@@H](NC(=O)CNC(=O)[C@H](CCC(=O)O)NC(=O)C(C)(C)NC(=O)[C@@H](N)Cc1ccc(O)cc1)[C@@H](C)O)[C@@H](C)CC)[C@@H](C)CC)C(=O)N[C@@H](Cc1c[nH]cn1)C(=O)N[C@@H](CCC(N)=O)C(=O)NC(C)(C)C(=O)N[C@@H](CC(=O)O)C(=O)N[C@@H](Cc1ccccc1)C(=O)N[C@H](C(=O)N[C@@H](CCC(=O)O)C(=O)N[C@@H](Cc1ccc(O)cc1)C(=O)N[C@@H](CCCCNC(=O)COCCOCCNC(=O)COCCOCCNC(=O)CC[C@H](NC(=O)CCCCCCCCCCCCCCCCC(=O)O)C(=O)O)C(=O)N[C@@H](CC(C)C)C(=O)N[C@@H](CCC(=O)O)C(=O)NCC(=O)NCC(=O)N1CCC[C@H]1C(=O)N[C@@H](CO)C(=O)N[C@@H](CO)C(=O)NCC(=O)N[C@@H](C)C(=O)N1CCC[C@H]1C(=O)N1CCC[C@H]1C(=O)N1CCC[C@H]1C(=O)N[C@@H](CO)C(N)=O)C(C)C` [Example 103] (H-Y[Aib]EGTFISDYSI[αMeL]LD[Orn]IHQ[Aib]DFVEYK([AEEA-AEEA-γGlu-C18 diacid])LEGGPSSGAPPPS-NH2), the concentration for a half-maximal effect (EC50) in experiment [1] was 0.0129 nM; in experiment [2], over 5000 nM; in experiment [3], over 5000 nM.
Turning to `CC[C@H](C)[C@H](NC(=O)[C@H](CCCN)NC(=O)[C@H](CC(=O)O)NC(=O)[C@H](CC(C)C)NC(=O)[C@](C)(CC(C)C)NC(=O)[C@@H](NC(=O)[C@H](CO)NC(=O)[C@H](Cc1ccc(O)cc1)NC(=O)[C@H](CC(=O)O)NC(=O)[C@H](CO)NC(=O)[C@@H](NC(=O)[C@H](Cc1ccccc1)NC(=O)[C@@H](NC(=O)CNC(=O)[C@H](CCC(=O)O)NC(=O)C(C)(C)NC(=O)[C@@H](N)Cc1ccc(O)cc1)[C@@H](C)O)[C@@H](C)CC)[C@@H](C)CC)C(=O)N[C@@H](Cc1c[nH]cn1)C(=O)N[C@@H](CCC(N)=O)C(=O)NC(C)(C)C(=O)N[C@@H](CCC(=O)O)C(=O)N[C@@H](Cc1ccccc1)C(=O)N[C@H](C(=O)N[C@@H](CCC(=O)O)C(=O)N[C@@H](Cc1ccc(O)cc1)C(=O)N[C@@H](CCCCNC(=O)COCCOCCNC(=O)COCCOCCNC(=O)CC[C@H](NC(=O)CCCCCCCCCCCCCCCCCCC(=O)O)C(=O)O)C(=O)N[C@@H](CC(C)C)C(=O)N[C@@H](CCC(=O)O)C(=O)N[C@@H](C)C(=O)NCC(=O)N1CCC[C@H]1C(=O)N[C@@H](CO)C(=O)N[C@@H](CO)C(=O)NCC(=O)N[C@@H](C)C(=O)N1CCC[C@H]1C(=O)N1CCC[C@H]1C(=O)N1CCC[C@H]1C(=O)N[C@@H](CO)C(N)=O)C(C)C` [Example 104] (H-Y[Aib]EGTFISDYSI[αMeL]LD[Orn]IHQ[Aib]EFVEYK([AEEA-AEEA-γGlu-C20 diacid])LEAGPSSGAPPPS-NH2), the EC50 was 0.0165 nM in experiment [1], over 5000 nM in experiment [2] and over 5000 nM in experiment [3].
`CC[C@H](C)[C@H](NC(=O)[C@H](CCCN)NC(=O)[C@H](CC(=O)O)NC(=O)[C@H](CC(C)C)NC(=O)[C@](C)(CC(C)C)NC(=O)[C@@H](NC(=O)[C@H](CO)NC(=O)[C@H](Cc1ccc(O)cc1)NC(=O)[C@H](CC(=O)O)NC(=O)[C@H](CO)NC(=O)[C@@H](NC(=O)[C@H](Cc1ccccc1)NC(=O)[C@@H](NC(=O)CNC(=O)[C@H](CCC(=O)O)NC(=O)C(C)(C)NC(=O)[C@@H](N)Cc1ccc(O)cc1)[C@@H](C)O)[C@@H](C)CC)[C@@H](C)CC)C(=O)N[C@@H](Cc1c[nH]cn1)C(=O)N[C@@H](CCC(N)=O)C(=O)NC(C)(C)C(=O)N[C@@H](CCC(=O)O)C(=O)N[C@@H](Cc1ccccc1)C(=O)N[C@H](C(=O)N[C@@H](CCC(=O)O)C(=O)N[C@@H](Cc1ccc(O)cc1)C(=O)N[C@@H](CCCCNC(=O)COCCOCCNC(=O)COCCOCCNC(=O)CC[C@H](NC(=O)CCCCCCCCCCCCCCCCCCC(=O)O)C(=O)O)C(=O)N[C@@H](CC(C)C)C(=O)N[C@@H](CCC(=O)O)C(=O)N[C@H](C(=O)NCC(=O)N1CCC[C@H]1C(=O)N[C@@H](CO)C(=O)N[C@@H](CO)C(=O)NCC(=O)N[C@@H](C)C(=O)N1CCC[C@H]1C(=O)N1CCC[C@H]1C(=O)N1CCC[C@H]1C(=O)N[C@@H](CO)C(N)=O)[C@@H](C)O)C(C)C` [Example 105] (H-Y[Aib]EGTFISDYSI[αMeL]LD[Orn]IHQ[Aib]EFVEYK([AEEA-AEEA-γGlu-C20 diacid])LETGPSSGAPPPS-NH2): the values for the EC50 in experiment [1], in experiment [2] and in experiment [3] were 0.0179 nM, over 5000 nM and over 5000 nM, respectively.
In the case of `CC[C@H](C)[C@H](NC(=O)[C@H](CCCN)NC(=O)[C@H](CC(=O)O)NC(=O)[C@H](CC(C)C)NC(=O)[C@](C)(CC(C)C)NC(=O)[C@@H](NC(=O)[C@H](CO)NC(=O)[C@H](Cc1ccc(O)cc1)NC(=O)[C@H](CC(=O)O)NC(=O)[C@H](CO)NC(=O)[C@@H](NC(=O)[C@H](Cc1ccccc1)NC(=O)[C@@H](NC(=O)CNC(=O)[C@H](CCC(=O)O)NC(=O)C(C)(C)NC(=O)[C@@H](N)Cc1ccc(O)cc1)[C@@H](C)O)[C@@H](C)CC)[C@@H](C)CC)C(=O)N[C@@H](Cc1c[nH]cn1)C(=O)N[C@@H](CCC(N)=O)C(=O)NC(C)(C)C(=O)N[C@@H](CCC(=O)O)C(=O)N[C@@H](Cc1ccccc1)C(=O)N[C@H](C(=O)N[C@@H](CCC(=O)O)C(=O)N[C@@H](Cc1ccc(O)cc1)C(=O)N[C@@H](CCCCNC(=O)COCCOCCNC(=O)COCCOCCNC(=O)CC[C@H](NC(=O)CCCCCCCCCCCCCCCCCCC(=O)O)C(=O)O)C(=O)N[C@@H](CC(C)C)C(=O)N[C@@H](CCC(=O)O)C(=O)N[C@@H](CCC(N)=O)C(=O)NCC(=O)N1CCC[C@H]1C(=O)N[C@@H](CO)C(=O)N[C@@H](CO)C(=O)NCC(=O)N[C@@H](C)C(=O)N1CCC[C@H]1C(=O)N1CCC[C@H]1C(=O)N1CCC[C@H]1C(=O)N[C@@H](CO)C(N)=O)C(C)C` [Example 106] (H-Y[Aib]EGTFISDYSI[αMeL]LD[Orn]IHQ[Aib]EFVEYK([AEEA-AEEA-γGlu-C20 diacid])LEQGPSSGAPPPS-NH2), the EC50 was 0.014 nM in experiment [1], over 5000 nM in experiment [2] and over 5000 nM in experiment [3].
